According to US12473290B2, “Imidazopyridazine compounds useful as modulators of IL-12, IL-23 and/or IFN alpha responses” (BRISTOL-MYERS SQUIBB COMPANY, priority 2019, dated 2025):
pIC50: −log10 of the molar value.

How the values were obtained:
Format in all cases: cell-based
[1] = tested on: IL-23 Kit225 Reporter (Kit225 T cells with a stably-integrated STAT-dependent luciferase reporter, stimulated with IL-23); assay: Kit225 T Cell Assay, IL-23-stimulated STAT-dependent luciferase reporter; settings: 20 ng/mL human recombinant IL-23, 5-6 hours, luciferase expression
Method: (§1) Kit225 T cells with a stably-integrated STAT-dependent luciferase reporter were plated in RPMI (Gibco) containing 10% heat-inactivated FBS (Gibco) and 100 U/mL PenStrep (Gibco). The cells were then stimulated with either 20 ng/mL human recombinant IL-23 or 200 U/mL human recombinant IFNα (PBL InterferonSource) for 5-6 hours. Luciferase expression was measured using the STEADY-GLO® Luciferase Assay System (Promega) according to the manufacturer's instructions. Inhibition data were calculated by comparison to no inhibitor control wells for 0% inhibition and non-stimulated control wells for 100% inhibition. Dose response curves were generated to determine the concentration required to inhibit 50% of cellular response (IC50) as derived by non-linear regression analysis.

[2] = tested on: IFNα Kit225 Reporter (Kit225 T cells with a stably-integrated STAT-dependent luciferase reporter, stimulated with IFNα); assay: Kit225 T Cell Assay, IFNα-stimulated STAT-dependent luciferase reporter; settings: 200 U/mL human recombinant IFNα, 5-6 hours, luciferase expression
Method: as §1

[3] = Kit225 T Cell Assay, IL-23-stimulated STAT-dependent luciferase reporter; settings: Kit225 T cells, 20 ng/mL human recombinant IL-23, 5-6 hours, luciferase expression
Method: as §1

SMILES	pIC50 [1]	pIC50 [2]	pIC50 [3]
N#Cc1cnc2c(Nc3ccc(C(=O)N4[C@H]5CC[C@@H]4CC5)c(OCC(F)F)n3)cc(NC3CCOCC3)nn12 [Example 46, 8-{[6-(2,2-difluoroethoxy)-5-[(1s,4s)-7-azabicyclo[2.2.1]heptane-7-carbonyl]pyridin-2-yl]amino}-6-[(oxan-4-yl)amino]imidazo[1,2-b]pyridazine-3-carbonitrile]	7.22	6.44	–
COc1cccc2ccc(Nc3cc(NC45CC6CC(O)(CC(F)(C6)C4)C5)nn4c(C#N)cnc34)nc12 (stereo not drawn) [Example 22, 6-[(3-fluoro-5-hydroxyadamantan-1-yl)amino]-8-[(8-methoxyquinolin-2-yl)amino]imidazo[1,2-b]pyridazine-3-carbonitrile]	–	6.07	6.44
N#Cc1cnc2c(Nc3ccc(C(=O)N[C@@H]4CCC[C@@H]4O)cn3)cc(NCC3CC3)nn12 [Example 53, 6-({3-cyano-6-[(cyclopropylmethyl)amino]imidazo[1,2-b]pyridazin-8-yl}amino)-N-[(1R,2S)-2-hydroxycyclopentyl]pyridine-3-carboxamide]	–	6.85	6.62
N#Cc1cnc2c(Nc3ccc(C(=O)NCC4CCCO4)c(OCC(F)F)n3)cc(N[C@@H]3CCCC[C@H]3O)nn12 (stereo partly drawn) [Example 35, 6-[(3-cyano-6-{[(1R,2R)-2-hydroxycyclohexyl]amino}imidazo[1,2-b]pyridazin-8-yl)amino]-2-(2,2-difluoroethoxy)-N-[(oxolan-2-yl)methyl]pyridine-3-carboxamide]	–	6.21	6.20
CC1(C)CCCN1C(=O)c1ccc(Nc2cc(N[C@H]3CCCC[C@@H]3O)nn3c(C#N)cnc23)nc1 [Example 11, 8-{[5-(2,2-dimethylpyrrolidine-1-carbonyl)pyridin-2-yl]amino}-6-{[(1S,2S)-2-hydroxycyclohexyl]amino}imidazo[1,2-b]pyridazine-3-carbonitrile]	–	6.44	6.25
CN(C)c1nc(Nc2cc(N[C@@H]3CCCC[C@H]3O)nn3c(C#N)cnc23)ccc1C(=O)N1CCN(c2ccccc2F)CC1 [Example 30, 8-{[6-(dimethylamino)-5-[4-(2-fluorophenyl)piperazine-1-carbonyl]pyridin-2-yl]amino}-6-{[(1R,2R)-2-hydroxycyclohexyl]amino}imidazo[1,2-b]pyridazine-3-carbonitrile]	–	6.14	6.41
CC(C)N1CCN(c2cccc(Nc3cc(N[C@@H]4CCCC[C@H]4O)nn4c(C#N)cnc34)n2)CC1 [Example 54, 6-{[(1R,2R)-2-hydroxycyclohexyl]amino}-8-({6-[4-(propan-2-yl)piperazin-1-yl]pyridin-2-yl}amino)imidazo[1,2-b]pyridazine-3-carbonitrile]	–	6.06	6.20
CN1CCN(c2cccc(Nc3cc(N[C@@H]4CCCC[C@H]4O)nn4c(C#N)cnc34)n2)CC1 [Example 62, 6-{[(1R,2R)-2-hydroxycyclohexyl]amino}-8-{[6-(4-methylpiperazin-1-yl)pyridin-2-yl]amino}imidazo[1,2-b]pyridazine-3-carbonitrile]	–	6.70	6.54
C[C@@H](NC(=O)c1cccc(Nc2cc(NC34CC5CC(CC(O)(C5)C3)C4)nn3c(C#N)cnc23)n1)C(F)(F)F [Example 41, 6-({3-cyano-6-[(3-hydroxyadamantan-1-yl)amino]imidazo[1,2-b]pyridazin-8-yl}amino)-N-[(2R)-1,1,1-trifluoropropan-2-yl]pyridine-2-carboxamide]	–	6.49	6.96
CC(=O)N1[C@H](C)CN(c2cccc(Nc3cc(NC45CC6CC(CC(O)(C6)C4)C5)nn4c(C#N)cnc34)n2)C[C@@H]1C [Example 40, 8-({6-[(3R,5S)-4-acetyl-3,5-dimethylpiperazin-1-yl]pyridin-2-yl}amino)-6-[(3-hydroxyadamantan-1-yl)amino]imidazo[1,2-b]pyridazine-3-carbonitrile]	–	6.41	6.59
CC(C)(C)N1CCN(c2cccc(Nc3cc(N[C@@H]4CCCC[C@H]4O)nn4c(C#N)cnc34)n2)C1=O [Example 6, 8-{[6-(3-tert-butyl-2-oxoimidazolidin-1-yl)pyridin-2-yl]amino}-6-{[(1R,2R)-2-hydroxycyclohexyl]amino}imidazo[1,2-b]pyridazine-3-carbonitrile]	–	6.35	6.24
N#Cc1cnc2c(Nc3ccc(C(=O)N4CCCC4C(F)(F)F)c(OCC(F)F)n3)cc(N[C@@H]3CCCC[C@H]3O)nn12 (stereo partly drawn) [Example 33, 8-{[6-(2,2-difluoroethoxy)-5-[2-(trifluoromethyl)pyrrolidine-1-carbonyl]pyridin-2-yl]amino}-6-{[(1R,2R)-2-hydroxycyclohexyl]amino}imidazo[1,2-b]pyridazine-3-carbonitrile]	–	6.07	6.17
N#Cc1cnc2c(Nc3ccc(C(=O)N4CCCC4)c(N4CCCC4)n3)cc(N[C@@H]3CCCC[C@H]3O)nn12 [Example 2, 6-{[(1R,2R)-2-hydroxycyclohexyl]amino}-8-{[6-(pyrrolidin-1-yl)-5-(pyrrolidine-1-carbonyl)pyridin-2-yl]amino}imidazo[1,2-b]pyridazine-3-carbonitrile]	–	6.16	6.55
COc1ccc(Nc2cc(NC34CC5CC(O)(CC(O)(C5)C3)C4)nn3c(C#N)cnc23)nc1NC(=O)C(C)(C)C [Example 21, N-[6-({3-cyano-6-[(3,5-dihydroxyadamantan-1-yl)amino]imidazo[1,2-b]pyridazin-8-yl}amino)-3-methoxypyridin-2-yl]-2,2-dimethylpropanamide]	–	6.12	6.37
CCNc1nc(Nc2cc(N[C@H]3CCCC[C@@H]3O)nn3c(C#N)cnc23)ccc1C(=O)N1CCCC1 [Example 29, 8-{[6-(ethylamino)-5-(pyrrolidine-1-carbonyl)pyridin-2-yl]amino}-6-{[(1S,2S)-2-hydroxycyclohexyl]amino}imidazo[1,2-b]pyridazine-3-carbonitrile]	–	6.42	6.85
